In patent US20030114530A1, “Remedies for degenerative arthritis” (priority 2000, published 2003):
Entries after “also recorded” stand apart in the source; their conditions may differ.

Key:
model of OA in rabbits = details: Inflamm Res 44, Suppl 2, S117-118 (1995); cited from earlier work
[1] = test system: partial meniscectomy model of osteoarthritis rabbits; test: partial meniscectomy model of osteoarthritis in rabbits; type: in vivo, rabbit
Protocol: The effect of the compound on osteoarthritis invented in this study was confirmed by the experiments of a partial meniscectomy model in rabbits.
Female rabbits (Kbs: NZW(Healthy)) were bred for one week before the experiments. The animals were subjected to OA model according to following method.
Each animal was anesthetized with a subcutaneous injection of xylazine (0.05 ml/kg) and an intravenous injection of sodium pentobarbital (20 mg/kg). Right hind knee was shaved, and the width of the knee was measured with the micrometer caliper. It was disinfected with iodine solution. If required local anesthesia was performed with lidocaine hydrochloride.
The skin and articular capsule around right knee were incised at right angle to patellar ligament, the fibular collateral and sesamoid ligament were transected with blades. Adrenaline solution was dropped for the arrest of hemorrhage. The lateral meniscus was partially removed. After washing the operated area with saline solution, the synovium and articular capsule were stitched together. Then muscular coat and skin were put in a suture. […]
After anesthesia with sodium pentobarbital (40 mg/kg), the hind knee was shaved and the width of them was measured with a micrometer caliper. […] After masking, the area of erosion was measured. […]

| Compound | effect on a model of OA (model of OA in rabbits) | erosion area of femur ([1]; 10, 30, 100 or 300 mg/kg twice a day, oral, 7 days after meniscectomy, FIG. 1) | efficacy in the partial meniscectomy OA model ([1]; rabbits, oral twice a day) |
| --- | --- | --- | --- |
| COc1ccc(S(=O)(=O)N(Cc2cccnc2)[C@@H](C(=O)NO)C(C)C)cc1.Cl [CGS-27023A, 2(R)-[N-(4-methoxyphenylsulfonyl)-N-(3-pyridylmethyl)amino]-3-methylbutanohydroxamic acid hydrochloride] | effected on a model of OA in rabbits |  |  |
| CCOCOC[C@H](C[C@H](C)C(=O)NO)NC(=O)c1ccc(Oc2ccccc2)cc1 [compound of formula (I), N-hydroxy-5-ethoxymethyloxy-2(S)-methyl-4(S)-(4-phenoxybenzoyl)aminopentanamide] |  | decreasing effect | shows an efficiency; also recorded: high-effectivity |
